The test system of the assay is CD8F1 mice, subcutaneous mammary adenocarcinoma, T/C%. The assay is described as follows: NCI In Vivo Anticancer Drug Screen. Data for tumor model Mammary Adenocarcinoma CD8F1 (subcutaneous) in CD8F1. The following applies: higher = larger tumour. As to the method:
The antitumor activity of compounds was measured in mice bearing transplantable tumors. Survival or tumor size were measured and the results are expressed as the measurement made in the treated group (T) divided by the measurement made in the vehicle treated control group (C). The tumor model used in this assay is Mammary Adenocarcinoma CD8F1 (subcutaneous) in CD8F1

[1] abbreviates: endpoint: median tumor weight change, dose: 125.0 mg/kg/injection, schedule: Q01DX001 (ip), vehicle: saline.
The mark [2] stands for this setting: endpoint: median tumor weight change, dose: 62.5 mg/kg/injection, schedule: Q01DX001 (ip), vehicle: Klucel (hydroxypropylcellulose) (HPC).
Setting [3] is: endpoint: median tumor weight (est.), dose: 12.5 mg/kg/injection, schedule: Q07DX005 (ip), vehicle: saline with Tween-80.
Where [4] appears, read: endpoint: median tumor weight (est.), dose: 25.0 mg/kg/injection, schedule: Q07DX005 (ip), vehicle: saline with Tween-80.
[5] abbreviates: endpoint: median tumor weight (est.), dose: 50.0 mg/kg/injection, schedule: Q07DX005 (ip), vehicle: saline with Tween-80.

Values joined by “and” are separate entries in the source; they are usually repeats but may differ in a detail not shown here. Equal values may be shown once. Results filed as inconclusive are left out.

Turning to `CC1c2ccccc2CC(CCN(C)C)c2ccccc21` (stereo not drawn), the T/C is 76 % of control (endpoint: median tumor weight change, dose: 1.95 mg/kg/injection, schedule: Q01DX001 (ip), vehicle: saline with Tween-80); 71 % of control (endpoint: median tumor weight change, dose: 3.9 mg/kg/injection, schedule: Q01DX001 (ip), vehicle: saline with Tween-80); 87 % of control (endpoint: median tumor weight change, dose: 7.8 mg/kg/injection, schedule: Q01DX001 (ip), vehicle: saline with Tween-80); 73 % of control (endpoint: median tumor weight change, dose: 15.62 mg/kg/injection, schedule: Q01DX001 (ip), vehicle: saline with Tween-80).
For `CCC1(O)CC2CN(CCc3c([nH]c4ccccc34)C(C(=O)OC)(c3cc4c(cc3OC)N(C)C3C(O)(C(N)=O)C(O)C5(CC)C=CCN6CCC43C65)C2)C1` (stereo not drawn) (tested in a mixture with another compound), the T/C is 87 % of control (endpoint: median tumor weight (est.), dose: 0.12 mg/kg/injection, schedule: Q07DX005 (ip), vehicle: saline); 74 % of control (endpoint: median tumor weight (est.), dose: 0.25 mg/kg/injection, schedule: Q07DX005 (ip), vehicle: saline); 51 % of control (endpoint: median tumor weight (est.), dose: 0.5 mg/kg/injection, schedule: Q07DX005 (ip), vehicle: saline); 16 % of control (endpoint: median tumor weight (est.), dose: 1.0 mg/kg/injection, schedule: Q07DX005 (ip), vehicle: saline).
With `Cc1c2c(c(O)c3c(O)cccc13)C(=O)C1(O)C(O)=C(C(=O)NCNc3ccc(C(N)=O)cn3)C(=O)C(N(C)C)C1C2` (stereo not drawn), the T/C (endpoint: median tumor weight change, dose: 15.62 mg/kg/injection, schedule: Q01DX001 (ip), vehicle: saline) is 82 % of control; the T/C (endpoint: median tumor weight change, dose: 31.25 mg/kg/injection, schedule: Q01DX001 (ip), vehicle: saline) was 70 % of control; the T/C (endpoint: median tumor weight change, dose: 62.5 mg/kg/injection, schedule: Q01DX001 (ip), vehicle: saline) is 43 % of control; the T/C under setting [1] was 34 % of control.
Take `O=c1cc[nH]c(=O)o1`: the T/C was 75 % of control (endpoint: mean tumor weight, dose: 5.0 mg/kg/injection, schedule: Q04DX008 (ip), vehicle: water); 109 % of control (endpoint: mean tumor weight, dose: 10.0 mg/kg/injection, schedule: Q04DX008 (ip), vehicle: water); 70 % of control (endpoint: mean tumor weight, dose: 20.0 mg/kg/injection, schedule: Q04DX008 (ip), vehicle: water); 112 % of control (endpoint: mean tumor weight, dose: 25.0 mg/kg/injection, schedule: Q07DX005 (ip), vehicle: saline); 152 % of control (endpoint: mean tumor weight, dose: 25.0 mg/kg/injection, schedule: Q07DX007 (ip), vehicle: saline); 54 % of control (endpoint: mean tumor weight, dose: 50.0 mg/kg/injection, schedule: Q07DX005 (ip), vehicle: saline). The T/C runs as follows: (endpoint: mean tumor weight, dose: 50.0 mg/kg/injection, schedule: Q07DX007 (ip), vehicle: saline) 87 % of control; (endpoint: mean tumor weight, dose: 75.0 mg/kg/injection, schedule: Q07DX007 (ip), vehicle: saline) 46 % of control; (endpoint: median tumor weight (est.), dose: 12.2 mg/kg/injection, schedule: Q07DX005 (ip), vehicle: saline) 62 % of control; (endpoint: median tumor weight (est.), dose: 28.0 mg/kg/injection, schedule: Q07DX005 (ip), vehicle: saline) 83 % of control; (endpoint: median tumor weight (est.), dose: 42.0 mg/kg/injection, schedule: Q07DX005 (ip), vehicle: saline) 118 % of control; (endpoint: median tumor weight (est.), dose: 63.0 mg/kg/injection, schedule: Q07DX005 (ip), vehicle: saline) 67 % of control.
On to `COC(=O)C(N)Cc1ccc(O)c(O)c1` (stereo not drawn), for which the T/C is 195 % of control (endpoint: median tumor weight (est.), dose: 100.0 mg/kg/injection, schedule: Q07DX005 (ip), vehicle: saline); 112 % of control (endpoint: median tumor weight (est.), dose: 400.0 mg/kg/injection, schedule: Q07DX005 (ip), vehicle: saline); 108 % of control (endpoint: median tumor weight (est.), dose: 800.0 mg/kg/injection, schedule: Q07DX005 (ip), vehicle: saline).
In the case of `CN(N=O)C(N)=O`, the T/C runs as follows: (endpoint: median tumor weight (est.), dose: 3.12 mg/kg/injection, schedule: Q07DX005 (ip), vehicle: suspension in saline) 156 % of control; (endpoint: median tumor weight (est.), dose: 12.5 mg/kg/injection, schedule: Q07DX005 (ip), vehicle: saline) 103 % of control; (endpoint: median tumor weight (est.), dose: 12.5 mg/kg/injection, schedule: Q07DX005 (ip), vehicle: suspension in saline) 104 % of control; (endpoint: median tumor weight (est.), dose: 25.0 mg/kg/injection, schedule: Q07DX005 (ip), vehicle: saline) 81 % of control; (endpoint: median tumor weight (est.), dose: 25.0 mg/kg/injection, schedule: Q07DX005 (ip), vehicle: suspension in saline) 100 % of control; (endpoint: median tumor weight (est.), dose: 50.0 mg/kg/injection, schedule: Q07DX005 (ip), vehicle: saline) 39 % of control. The T/C is 31 % of control (endpoint: median tumor weight (est.), dose: 50.0 mg/kg/injection, schedule: Q07DX005 (ip), vehicle: suspension in saline); 66 % of control (endpoint: median tumor weight change, dose: 15.62 mg/kg/injection, schedule: Q01DX001 (ip), vehicle: Klucel (hydroxypropylcellulose) (HPC)); 54 % of control (endpoint: median tumor weight change, dose: 16.0 mg/kg/injection, schedule: Q01DX001 (ip), vehicle: saline); 29 % of control (endpoint: median tumor weight change, dose: 31.0 mg/kg/injection, schedule: Q01DX001 (ip), vehicle: saline); 67 % of control (endpoint: median tumor weight change, dose: 31.25 mg/kg/injection, schedule: Q01DX001 (ip), vehicle: Klucel (hydroxypropylcellulose) (HPC)); 72 % of control (endpoint: median tumor weight change, dose: 31.25 mg/kg/injection, schedule: Q01DX001 (ip), vehicle: suspension in saline). The T/C reads like this: (endpoint: median tumor weight change, dose: 62.0 mg/kg/injection, schedule: Q01DX001 (ip), vehicle: saline) 38 % of control; under setting [2], 14 % of control; (endpoint: median tumor weight change, dose: 62.5 mg/kg/injection, schedule: Q01DX001 (ip), vehicle: suspension in saline) 57 % of control; under setting [1], -59 % of control; (endpoint: median tumor weight change, dose: 125.0 mg/kg/injection, schedule: Q01DX001 (ip), vehicle: suspension in saline) -2 % of control.
As for `CC1=C(C)C(=O)O[C@@H]([C@](C)(O)[C@]2(O)CC[C@@]3(O)[C@@H]4C[C@H]5O[C@]56CC=CC(=O)[C@]6(C)[C@H]4CC[C@]23C)C1`, the T/C reads like this: (endpoint: median tumor weight change, dose: 25.0 mg/kg/injection, schedule: Q01DX001 (ip), vehicle: saline) 91 % of control; (endpoint: median tumor weight change, dose: 50.0 mg/kg/injection, schedule: Q01DX001 (ip), vehicle: saline) 98 % of control; (endpoint: median tumor weight change, dose: 200.0 mg/kg/injection, schedule: Q01DX001 (ip), vehicle: saline) 69 % of control; (endpoint: median tumor weight change, dose: 400.0 mg/kg/injection, schedule: Q01DX001 (ip), vehicle: saline) 82 % of control.
As for `C[Si](C)(C)n1nnn(-c2ccccc2)c1=O`, the T/C reads like this: (endpoint: mean tumor weight, dose: 25.0 mg/kg/injection, schedule: Q07DX006 (ip), vehicle: saline with Tween-80) 100 % of control; (endpoint: mean tumor weight, dose: 50.0 mg/kg/injection, schedule: Q07DX006 (ip), vehicle: saline with Tween-80) 164 % of control; (endpoint: mean tumor weight, dose: 400.0 mg/kg/injection, schedule: Q07DX006 (ip), vehicle: saline with Tween-80) 102 % of control; under setting [3], 79 % of control; under setting [4], 65 % of control; under setting [5], 97 % of control. The T/C reads like this: (endpoint: median tumor weight (est.), dose: 200.0 mg/kg/injection, schedule: Q07DX005 (ip), vehicle: saline with Tween-80) 77 % of control; (endpoint: median tumor weight (est.), dose: 400.0 mg/kg/injection, schedule: Q07DX005 (ip), vehicle: saline with Tween-80) 87 % of control.
Turning to `c1cnc2ncncc2n1`, the T/C was 84 % of control and 100 % of control under setting [3]; 93 % of control and 100 % of control under setting [4]; 69 % of control and 84 % of control under setting [5]; 92 % of control and 99 % of control (endpoint: median tumor weight (est.), dose: 100.0 mg/kg/injection, schedule: Q07DX005 (ip), vehicle: saline with Tween-80).
For `COC(=O)Nc1cn2cc(C(=O)c3cccs3)ccc2n1`, the T/C runs as follows: under setting [2], 99 % of control; (endpoint: median tumor weight change, dose: 125.0 mg/kg/injection, schedule: Q01DX001 (ip), vehicle: Klucel (hydroxypropylcellulose) (HPC)) 71 % of control; (endpoint: median tumor weight change, dose: 250.0 mg/kg/injection, schedule: Q01DX001 (ip), vehicle: Klucel (hydroxypropylcellulose) (HPC)) 69 % of control.

For the origin of these results see PubChem BioAssay AID220 (DTP/NCI, 2004).
